Reference: patent US20210392889A1, “COMPOSITIONS COMPRISING PYRIDINE CARBOXYLATE HERBICIDES WITH PDS INHIBITOR HERBICIDES” (Corteva Agriscience LLC, priority 2018, published 2021)

What was measured:
spring wheat (TRZAS) = experiment: Greenhouse postemergence phytotoxicity on crop, visual injury after 20-22 d; format: in vivo, Triticum aestivum
Excerpt: (§1) Seeds of the desired test plant species were planted in a 90:10% v/v (volume/volume) mixture of PRO-MIX® BX (Premier Tech Horticulture, Quakertown, Pa., USA) and PROFILE® GREENS GRADE™ (Profile Products LLC, Buffalo Grove, Ill., USA) planting mixture, which typically has a pH of 5.2 to 6.2 and an organic matter content of at least 50 percent, in plastic pots with a surface area of 103.2 square centimeters (cm^2). In some aspects, to ensure good germination and healthy plants, a fungicide treatment and/or other chemical or physical treatment was applied. The plants were grown for 7-36 days (d) in a greenhouse with an approximate 14-hour (h) photoperiod which was maintained at about 23° C. during the day and 22° C. during the night. Nutrients and water were added on a regular basis and supplemental lighting was provided with overhead metal halide 1000-Watt lamps as necessary. The plants were employed for testing when they reached the second or third true leaf stage.
(§2) Emulsifiable concentrates of each of each pyridine carboxylate herbicide (Compound A or Compound B) were prepared at 100 grams acid equivalent per liter (g ae/L). The emulsifiable concentrates also included a safener, cloquintocet-mexyl, at 120 grams active ingredient per liter (g ai/L). An aliquot of each emulsifiable concentrate was placed in a 25 mL glass vial and diluted with an aqueous mixture of 1.25% (v/v) ACTIROB® B esterified rapeseed oil (Bayer Crop Science, Research Triangle Park, N.C., USA) or MSO® Concentrate with LECI-TECH® methylated soybean oil (Loveland Products, Loveland, Colo., USA) to obtain concentrated stock solutions at the highest application rate for each herbicide, based upon a 12 milliliter (mL) application volume at a rate of 187 liters per hectare (L/ha). The concentrated stock solutions were further diluted with an aqueous mixture of 1.25% v/v ACTIROB® B or MSO® Concentrate with LECI-TECH® to obtain stock solutions at reduced application rates for each herbicide. Spray solutions of the herbicide combinations (Compound A or Compound B plus PDS inhibitor herbicide) were prepared by adding weighed amounts or aliquots of the PDS inhibitor herbicide to the stock solutions of Compound A or Compound B to form 12-mL spray solutions in two- or three-way combinations.
(§3) The spray solutions were applied to the plant material with an overhead Mandel track sprayer equipped with 8002E nozzles calibrated to deliver 187 L/ha over an application area of 0.503 square meters (m^2) at a spray height of 18 inches ([…] centimeters (cm)) above the average plant canopy. Control plants were sprayed in the same manner with the solvent blank. All pyridine carboxylate herbicide (component a) application rates are given as “g ae/ha” and all PDS inhibitor herbicide (component b) application rates are given as “g ai/ha.”
(§4) The treated plants and control plants were placed in a greenhouse as described above and watered by sub-irrigation to prevent wash-off of the test compounds. After 20-22 d, the condition of the test plants as compared with that of the control plants was determined visually and scored on a scale of 0 to 100 percent where 0 corresponds to no injury and 100 corresponds to complete kill.

[1] = tested on: wild buckwheat (POLCO, Polygonum convolvulus); experiment: Greenhouse postemergence herbicidal effect, visual injury after 20-22 d; format: in vivo
Excerpt: as §1, §2, §3, §4

[2] = tested on: wild mustard (SINAR, Sinapis arvensis); experiment: as above; format: in vivo
Excerpt: as §1, §2, §3, §4

[3] = tested on: spring rape (BRSNN, Brassica napus); experiment: as above; format: in vivo
Excerpt: as §1, §2, §3, §4

[4] = tested on: wild chamomile (MATCH, Matricaria chamomilla); experiment: as above; format: in vivo
Excerpt: as §1, §2, §3, §4

[5] = tested on: Russian thistle (SASKR, Salsola kali); experiment: as above; format: in vivo
Excerpt: as §1, §2, §3, §4

[6] = tested on: common lambsquarters (CHEAL, Chenopodium album L.); experiment: as above; format: in vivo
Excerpt: as §1, §2, §3, §4

[7] = tested on: kochia (KCHSC, Kochia scoparia); experiment: as above; format: in vivo
Excerpt: as §1, §2, §3, §4

spring barley (HORVS) = experiment: Greenhouse postemergence phytotoxicity on crop, visual injury after 20-22 d; format: in vivo, Hordeum vulgare
Excerpt: as §1, §2, §3, §4

[8] = tested on: winter rape (BRSNW, Brassica napus); experiment: Greenhouse postemergence herbicidal effect, visual injury after 20-22 d; format: in vivo; conditions: 60 g/ha, Table 1
Excerpt: as §1, §2, §3, §4

[9] = tested on: Canada thistle (CIRAR, Cirsium arvense); experiment: as above; format: in vivo
Excerpt: as §1, §2, §3, §4

[10] = tested on: pigweed (AMARE, Amaranthus retroflexus); experiment: as above; format: in vivo
Excerpt: as §1, §2, §3, §4

[11] = tested on: common rice (ORYSA, Oryza sativa); experiment: as above; format: in vivo; conditions: 12.5 g/ha, Table 4
Excerpt: as §1, §2, §3, §4

[12] = tested on: Italian ryegrass (LOLMU, Lolium multiflorum.); experiment: as above; format: in vivo; conditions: 12.5 g/ha, Table 4
Excerpt: as §1, §2, §3, §4

[13] = tested on: soybean (GLXMA=Glycine max); experiment: as above; format: in vivo; conditions: 12.5 g/ha, Table 4
Excerpt: as §1, §2, §3, §4

[14] = tested on: wild pansy (VIOTR, Viola tricolor); experiment: as above; format: in vivo; conditions: 12.5 g/ha, Table 4
Excerpt: as §1, §2, §3, §4

[15] = tested on: large crabgrass (DIGSA, Digitaria sanguinalis); experiment: as above; format: in vivo; conditions: 12.5 g/ha, Table 4
Excerpt: as §1, §2, §3, §4

[16] = tested on: barnyardgrass (ECHCG, Echinochloa crus-galli); experiment: as above; format: in vivo; conditions: 12.5 g/ha, Table 4
Excerpt: as §1, §2, §3, §4

[17] = tested on: giant foxtail (SETFA, Setaria faberi); experiment: as above; format: in vivo; conditions: 12.5 g/ha, Table 4
Excerpt: as §1, §2, §3, §4

[18] = tested on: broad-leaf dock (RUMOB, Rumex obtusifolius); experiment: as above; format: in vivo; conditions: 12.5 g/ha, Table 4
Excerpt: as §1, §2, §3, §4

[19] = tested on: velvetleaf (ABUTH, Abutilon theophrasti); experiment: as above; format: in vivo; conditions: 12.5 g/ha, Table 4
Excerpt: as §1, §2, §3, §4

[20] = tested on: ivyleaf morningglory (IPOHE, Ipomoea hederacea); experiment: as above; format: in vivo; conditions: 12.5 g/ha, Table 4
Excerpt: as §1, §2, §3, §4

CCC(Oc1ccc(F)c(C(F)(F)F)c1)C(=O)NCc1ccccc1 (stereo not shown) [Beflubutamid, 2-[4-fluoro-3-(trifluoromethyl)phenoxy]-N-(phenylmethyl)butanamide, reference compound]
visual injury Obs (spring wheat (TRZAS); 42.5 g/ha, Table 2): 0% | visual injury Obs ([1]; 42.5 g/ha, Table 2): 0% | visual injury Obs ([2]; 42.5 g/ha, Table 2): 5% | visual injury Obs ([3]; 42.5 g/ha, Table 2): 25% | visual injury Obs ([4]; 42.5 g/ha, Table 2): 0% | visual injury Obs ([5]; 42.5 g/ha, Table 2): 0% | visual injury Obs ([6]; 42.5 g/ha, Table 2): 0% | visual injury Obs ([7]; 42.5 g/ha, Table 2): 0% | visual injury Obs (spring barley (HORVS); 42.5 g/ha, Table 2): 18%

O=C(Nc1ccc(F)cc1F)c1cccnc1Oc1cccc(C(F)(F)F)c1 [Diflufenican, N-(2,4-difluorophenyl)-2-[3-(trifluoromethyl)phenoxy]-3-pyridinecarboxamide, reference compound]
visual injury (spring wheat (TRZAS); 60 g/ha, Table 1): 0% | visual injury [8]: 18% | visual injury ([9]; 60 g/ha, Table 1): 5% | visual injury ([1]; 60 g/ha, Table 1): 10% | visual injury ([2]; 60 g/ha, Table 1): 23% | visual injury ([4]; 60 g/ha, Table 1): 0% | visual injury ([5]; 60 g/ha, Table 1): 18% | visual injury ([6]; 60 g/ha, Table 1): 13% | visual injury ([10]; 60 g/ha, Table 1): 20% | visual injury ([7]; 60 g/ha, Table 1): 13% | visual injury (spring barley (HORVS); 60 g/ha, Table 1): 13%

Cn1cc(-c2ccccc2)c(=O)c(-c2cccc(C(F)(F)F)c2)c1 [Fluridone, 1-methyl-3-phenyl-5-[3-(trifluoromethyl)-phenyl]-4(1H)-pyridinone, reference compound]
visual injury Obs (spring wheat (TRZAS); 280 g/ha, Table 3): 0% | visual injury Obs ([9]; 280 g/ha, Table 3): 18% | visual injury Obs ([1]; 280 g/ha, Table 3): 13% | visual injury Obs ([2]; 280 g/ha, Table 3): 45% | visual injury Obs ([3]; 280 g/ha, Table 3): 18% | visual injury Obs ([4]; 280 g/ha, Table 3): 5% | visual injury Obs ([5]; 280 g/ha, Table 3): 0% | visual injury Obs ([6]; 280 g/ha, Table 3): 13% | visual injury Obs ([10]; 280 g/ha, Table 3): 23% | visual injury Obs (spring barley (HORVS); 280 g/ha, Table 3): 0%

O=C(Nc1ccc(F)cc1)c1cccc(Oc2cccc(C(F)(F)F)c2)n1 [Picolinafen, N-(4-fluorophenyl)-6-[3-(trifluoromethyl)phenoxy]-2-pyridinecarboxamide, reference compound]
visual injury Obs ([9]; 12.5 g/ha, Table 4): 5% | visual injury Obs [11]: 5% | visual injury Obs [12]: 0% | visual injury Obs ([3]; 12.5 g/ha, Table 4): 28% | visual injury Obs [13]: 20% | visual injury Obs [14]: 0% | visual injury Obs [15]: 50% | visual injury Obs [16]: 0% | visual injury Obs [17]: 0% | visual injury Obs [18]: 0% | visual injury Obs ([6]; 12.5 g/ha, Table 4): 20% | visual injury Obs [19]: 15% | visual injury Obs [20]: 5%
